Several values for one entry are separate records, joined by “and”; a condition that tells them apart may be missing. Equal values may be shown once.
Experiments:
[1] = system: HIV with codon 74 mutation in reverse transcriptase; details: codon 74 mutation in an HIV construct (St. Clair et al.); cited from earlier work
serum HIV RNA = experiment: Serum virus burden by quantitative PCR in patients receiving didanosine monotherapy; format: in vivo, human (patients infected with HIV)
Excerpt: Duplicate serum samples were ultracentrifuged, and the pellet was purified by phenol-chloroform extraction and alcohol precipitation, as previously described for plasma (Winters et al., 1993, J. Clin. Microbiol. 31:2960-2966). Polymerase chain reaction quantification of viral RNA was done using reverse-transcriptase PCR, and the PCR product was detected using a nonisotopic enzyme-hybridization assay, as previously described (Winters et al., 1992, PCR Methods Appl. 1:257-262). Results were then expressed as HIV RNA copies per milliliter of serum.
(§1) A two-sided t-test was used to compare changes in virus burden between patient groups. A standard one-sample, two-sided Wilcoxon test was used to compare differences in the change of slopes of CD4^+ T cells (slopes of CD4^+ cells before the mutation compared with slopes of CD4^+ cells after the mutation) for patients developing a mutation at codon 74. The slope difference test analysis pertained to the slope difference statistic, defined to be the difference in fitted slope of the CD4^+ counts after compared with before the mutation at codon 74. Thirty-four of 38 patients in the mutation group had sufficient data to allow computation of the slope difference statistic.

CD4+ T cells = experiment: CD4+ T-cell slope changes before/after codon 74 mutation on didanosine; format: in vivo, human (patients infected with HIV); details: 34 of 38 patients who developed the mutation; CI −2.68 to −0.71
Excerpt: as §1
We compared the slope difference statistic values for the 34 mutants with the corresponding values from the wild-type group in order to see if they were more negative in the mutant group. […]

plasma HIV RNA = experiment: Plasma HIV RNA copy number by cDNA gene amplification (PCR) and enzyme-linked affinity assay; format: in vivo, human (HIV antibody-positive subjects); details: individual patient
Excerpt: After informed consent was obtained, whole blood samples were collected by venipuncture in the presence of acid-citrate-dextrose as an anticoagulant. A single plasma sample was collected from 39 HIV antibody-positive subjects who were not receiving antiretroviral therapy at the time of collection and from 33 HIV antibody-positive subjects who were currently on and had received AZT for a minimum of 3 mo.
(§2) Two plasma samples were collected from an additional 27 subjects before and 1 month after initiation of dideoxynucleoside therapy. 18 of these subjects received 500 mg/d of AZT orally. Seven subjects received a combination of zidovudine (150-600 mg/d) and 2′,3′-dideoxyinosine (ddI) (134-500 mg/d). Two patients received 500 mg/d of ddI alone (see Table I for individual subject characteristics). Finally, nine of these subjects had two plasma samples taken 1-3 wk. before initiating antiretroviral therapy and two plasma samples taken 1 and 2 mo. after commencing therapy. Plasma was separated within 4 h. by centrifugation at 500 g for 10 min. A second centrifugation was performed on the plasma at 500 g for 30 min. to remove any cellular material. 200 μl of plasma was then mixed with 200 μl of a solution containing 5M guanidinium thiocyanate, vortexed briefly, and stored at −70° C. until further use. All samples were assayed within 3 mo. of collection. To decrease variance, all specimens to be compared from the same subject were run in the same assay.
RNA was extracted from plasma by the method described in Chomczynski et al., 1987, Ann. Biochem. 162:156-159. Briefly, 200 μl of clarified plasma to which 200 μl of 5M guanidinium thiocyanate had previously been added was extracted with phenol/chloroform and precipitated with isopropanol. The resulting pellet was then washed in 75% ethanol, dried, and brought up in diethylpyrocarbonate treated, glass distilled water.
HIV RNA was transcribed to cDNA using Moloney murine leukemia virus reverse transcriptase (Bethesda Research Laboratories, Gaithersburg, Md.) by the method described in Kawasaki, 1990, “In PCR Protocols: A Guide to Methods and Applications” pp. 21-27, M. A. Innis, D. H. Gelfand, J. J. Sninsky, and T. J. White, eds. Academic Press, Berkeley, Calif. Oligomers used for amplification included SK38, SK39, and SK19 (Kellog et al., 1990, “In PCR Protocols: A Guide to Methods and Applications,” pp. 337-348, M. A. Innis, D. H. Gelfand, J. J. Sninsky, and T. J. White, eds. Academic Press, Berkeley, Calif.). Biotinylation of SK38 and horseradish peroxidase (HRP) labeling of probe SK19 were prepared as described in Levenson et al., 1990, “In PCR Protocols: A Guide to Methods and Applications,” pp. 99-112M. S. Innis, D. H. Gelfand, J. J. Sninsky, and T. J. White, eds. Academic Press, Berkeley, Calif. Amplification of HIV cDNA was carried out as follows: to a 100-μl reaction mixture was added the cDNA, 50 pmol of primers SK38 and SDK39, […] of each dNTP, 10 mM Tris (pH 8.3), 2.5 mM MgCl2, 50 mM KCl, and 2.5 U of recombiTaq DNA polymerase (Perkin-Elmer Cetus, Norwalk, Conn.). The mixture was then overlaid with 50 μl of mineral oil. Tubes were placed in a DNA thermal cycler (Perkin-Elmer Cetus) for 30 cycles of amplification with the following program: 95° C./30 s, 55° C./30s, and 72° C./60 s for denaturation, annealing, and extension, respectively. Negative and positive controls which included both high and low copy number HIV RNA and DNA were added at each step.
To detect and quantitate PCR product, 96-well microplates (Maxisorp; Nunc, Naperville, Ill.) were coated with 100 μl of a 0.1 mg/ml solution of avidin (Sigma Chemical Co., St. Louis, Mo.) in 50 mM Na2CO3 (pH 9.6) overnight at room temperature. Wells were then washed twice with PBS. Wells were then filled with 300 μl of a blocking solution containing 5X Denhardt's solution, 1% gelatin (Sigma), […] sheared herring sperm DNA (Promega Biotec, Madison, Wis.) at least overnight at 4° C. […]

CD4 cells = system: CD4 cells; design: species or system human (HIV antibody-positive subjects); details: human, in vivo
Protocol: as §2
Sample optical density was converted to copy number and analyses performed on samples expressed as RNA copy number/200 μl of plasma. […] A t test of paired samples was used to analyze paired plasma data and CD4 counts from subjects pre- and post-therapy. All t tests were two tailed. […]

OC[C@@H]1CC[C@H](n2cnc3c(O)ncnc32)O1 [ddI, 2′,3′-dideoxyinosine]
decrease in susceptibility to didanosine [1]: eightfold
Fold Difference in virus burden, mutant vs wild type (serum HIV RNA; Week 0, listed as DIDANOSINE): 1.66 fold
Fold Difference in virus burden, mutant vs wild type (serum HIV RNA; Week 0, listed as didanosine): 1.6 fold
Fold Difference in virus burden, mutant vs wild type (serum HIV RNA; Week 24, listed as DIDANOSINE): 2.71 fold
Fold Difference in virus burden, mutant vs wild type (serum HIV RNA; Week 24, listed as didanosine): 2.7 fold
Week 0, mean HIV RNA copies/mL serum (serum HIV RNA; patients whose codon 74 genotypes became mutant, initiation of didanosine): 83 000 copies/mL serum
Week 0, mean HIV RNA copies/mL serum (serum HIV RNA; patients whose codon 74 genotypes remained wild type, initiation of didanosine, listed as DIDANOSINE): 50100 copies/mL serum
Week 0, mean HIV RNA copies/mL serum (serum HIV RNA; patients whose codon 74 genotypes remained wild type, initiation of didanosine, listed as didanosine): 50 100 copies/mL serum
Fold increase in virus burden between week 0 to 24 (serum HIV RNA; remained wild type at codon 74): 1.65 fold
Week 24, mean HIV RNA copies/mL serum (serum HIV RNA; remained wild type at codon 74): 82400 copies/mL serum
mean serum virus burden (serum HIV RNA; subgroup codon 74 mutation with codon 215 mutation, after 24 weeks of didanosine): about 275 400 HIV RNA copies/mL serum
Week 0, mean HIV RNA copies/mL serum (serum HIV RNA; {}): 83000 copies/mL serum
Week 24, mean HIV RNA copies/mL serum (serum HIV RNA; {}): 225000 copies/mL serum
median greater decline of CD4+ T-cell slope after vs before codon 74 mutation (CD4+ T cells): −1.54 CD4^+ cells/wk
Post HIV RNA (plasma HIV RNA; 1 mo after initiation, ddI 500 mg/d): 0 copy number/200 μl of plasma
Pre HIV RNA (plasma HIV RNA; before initiation of therapy): 966 copy number/200 μl of plasma and 3944 copy number/200 μl of plasma
Post CD4 (CD4 cells): 328/310 and 222/370
Pre CD4 (CD4 cells): 328/310 and 222/370

— USRE38352E1, “Polymerase chain reaction assays for monitoring antiviral therapy and making therapeutic decisions in the treatment of acquired immunodeficiency syndrome” (priority 1992, dated 2003)
